# Where a name gives a salt, the structure may show the parent alone. Read-outs that look alike come from different tables or passages of the source.
# Columns and labels:
# MRSA = assay: MIC by broth microdilution, MRSA isolates; assay type: cell-based; conditions: for MIC AG039 MRSA AAC(6′)-I ANT(4′)-I: clinical isolate AG039, AAC(6′)-I ANT(4′)-I; for MIC AG042 MRSA AAC(6′)-I ANT(4′)-I APH(2′): clinical isolate AG042, AAC(6′)-I ANT(4′)-I APH(2′); for MIC: Staphylococcus aureus, MRSA, Table 1 (Example 3)
# [1] = tested on: rabbit reticulocyte ribosomes; assay: in-vitro translation assay, rabbit reticulocyte ribosomes; assay type: biochemical; conditions: mammalian cytosolic ribosomes (rabbit)
# [2] = tested on: mitochondrial ribosome (human chimeric); assay type: biochemical
# From the text: (§1) The antiribosomal activity of these compounds was investigated with cell-free translation assays using both wild type bacterial ribosomes and hybrid ribosomes carrying eukaryotic decoding A sites enabling the prediction of selectivity.
# [3] = tested on: wild type bacterial ribosomes; assay: in-vitro translation assay, bacterial ribosomes; assay type: biochemical
# From the text: as §1
# [4] = tested on: A1555G mutant mitochondrial ribosome (human chimeric); assay: in-vitro translation assay, human chimeric ribosomes, A1555G mutant mitochondrial decoding site; assay type: biochemical
# From the text: as §1
# [5] = tested on: E coli carrying specific resistance determinants; assay: MIC by broth microdilution, E coli carrying specific resistance determinants; assay type: cell-based; conditions: for MIC AG003 E. coli AAC(3)-II: clinical isolate AG003, AAC(3)-II; for MIC: Escherichia coli
# E coli wild type = assay: MIC by broth microdilution, wild type E coli; assay type: cell-based; conditions: for MIC AG001 E. coli WT: clinical isolate AG001, WT; for MIC AG055 E. coli WT: clinical isolate AG055, WT; for MIC: Escherichia coli
# [6] = tested on: Acinetobacter baumannii pittii AG225; assay: MIC by broth microdilution, Acinetobacter baumannii; assay type: cell-based; conditions: strain AG225 Acinetobacter baumannii pittii
# M. smegmatis SZ380 = assay: MIC by broth microdilution, M. smegmatis; conditions: for MIC: Mycolicibacterium smegmatis
# P aeruginosa = assay: MIC by broth microdilution, P aeruginosa isolates; assay type: cell-based, Pseudomonas aeruginosa
# [7] = tested on: Klebsiella pneumonia AG215; assay: MIC by broth microdilution, Klebsiella pneumonia; assay type: cell-based; conditions: strain AG215 Klebsiella pneumonia
# [8] = tested on: cytosolic ribosome (human chimeric); assay type: biochemical
# From the text: as §1
# [9] = tested on: Enterobacter cloacae AG290; assay: MIC by broth microdilution, Enterobacter cloacae; assay type: cell-based; conditions: strain AG290 Enterobacter cloacae
# M. abscessus = assay: MIC by broth microdilution, M. abscessus; assay type: cell-based; conditions: Mycobacteroides abscessus
# [10] = ribosomes with a human mitochondrial decoding site, read-out: IC50 Mitoch.
# [11] = Mycobacterium smegmatis ribosomes, read-out: IC50 Bacterial
smiles,measurement,setting,value
NC[C@H]1O[C@H](O[C@H]2[C@H](O[C@@H]3O[C@H](CN)[C@@H](O)[C@H]3O)[C@@H](O)[C@H](N)C[C@@H]2N)[C@H](N)[C@@H](O)[C@@H]1O [DC048],MIC AG038 MRSA,MRSA; clinical isolate AG038,8 µg/mL
same,MIC AG039 MRSA AAC(6′)-I ANT(4′)-I,MRSA,>64 µg/mL
same,MIC AG042 MRSA AAC(6′)-I ANT(4′)-I APH(2′),MRSA,>128 µg/mL
same,MIC AG044 MRSA,MRSA; clinical isolate AG044,8 to 16 µg/mL
same,IC50,[1],50 µM
same,IC50,[2]; [10],76 µM
same,IC50,[3]; [11],0.09 µM
same,IC50,"[4]; human mitochondrial decoding site with A1555G point mutation, read-out: IC50 Mitoch. A1555G",34 µM
same,MIC AG003 E. coli AAC(3)-II,[5],16 µg/mL
same,MIC AG001 E. coli WT,E coli wild type,32 to 64 µg/mL
same,MIC AG055 E. coli WT,E coli wild type,32 µg/mL
"NC[C@@H]1O[C@H](O[C@H]2[C@@H](O)[C@H](O[C@@H]3[C@@H](O)[C@H](N)C[C@H](N)[C@H]3O[C@H]3O[C@H](CO)[C@@H](O)C[C@H]3N)O[C@@H]2CO)[C@H](N)[C@@H](O)[C@@H]1O [Lividomycin B, lividomycin B, reference compound]",MIC AG225 A. baumannii,[6],4 µg/mL
same,MIC SZ380 M. smegmatis,M. smegmatis SZ380; strain SZ380 Mycobacterium smegmatis,0.5 µg/mL
same,MIC AG031 P. aer. APH(3′)-II,"P aeruginosa; clinical isolate AG031, APH(3′)-II",16 µg/mL
same,MIC AG032 P. aer. APH(3′)-II,"P aeruginosa; clinical isolate AG032, APH(3′)-II",>128 µg/mL
same,MIC50 P aeruginosa AG31,"P aeruginosa; strain AG31, Table 1 (Example 1)",16 µg/mL
same,MIC50 P aeruginosa AG32,"P aeruginosa; strain AG32, Table 1 (Example 1)",>128 µg/mL
same,MIC50 P aeruginosa AG33,"P aeruginosa; strain AG33, Table 1 (Example 1)",128 µg/mL
same,MIC50 P aeruginosa AG86,"P aeruginosa; strain AG86, Table 1 (Example 1)",128 µg/mL
same,MIC AG220 P. aerugin,P aeruginosa; strain AG220 Pseudomonas aeruginosa ATCC27853,4 µg/mL
same,MIC AG038 MRSA,MRSA; clinical isolate AG038,4 µg/mL
same,MIC AG039 MRSA AAC(6′)-I ANT(4′)-I,MRSA,>128 µg/mL
same,MIC AG042 MRSA AAC(6′)-I ANT(4′)-I APH(2′),MRSA,>128 µg/mL
same,MIC AG044 MRSA,MRSA; clinical isolate AG044,4 to 8 µg/mL
same,MIC50 MRSA AG38,"MRSA; strain AG38, Table 1 (Example 1)",4 µg/mL
same,MIC50 MRSA AG39,"MRSA; strain AG39, Table 1 (Example 1)",>128 µg/mL
same,MIC50 MRSA AG42,"MRSA; strain AG42, Table 1 (Example 1)",>128 µg/mL
same,MIC50 MRSA AG44,"MRSA; strain AG44, Table 1 (Example 1)",4 to 8 µg/mL
same,MIC AG215 K. pneumon,[7],2 µg/mL
same,IC50,[1],25 µM
same,IC50,"[2]; mitochondrial, Table 3 (Example 1), read-out: IC50 Mit",109 µM
same,IC50,[2]; [10],109 µM
same,IC50,"[8]; cytosolic, Table 3 (Example 1), read-out: IC50 Cyt",53 µM
same,IC50,"[8]; ribosomes with a human cytosolic decoding site, read-out: IC50 Cytosolic",53 µM
same,IC50,[3]; [11],0.04 µM
same,IC50,"[3]; bacterial ribosome, Table 3 (Example 1), read-out: IC50 Bac",0.04 µM
same,MIC AG290 E. cloacae,[9],2 µg/mL
same,MIC E coli AG007 ANT(3″) AAC(3)-I,"[5]; AG007 ANT(3″) AAC(3)-I, Table 2 (Example 1)",4 µg/mL
same,MIC E coli AG103 ArmA,"[5]; AG103 ArmA, Table 2 (Example 1)",16 µg/mL
same,MIC E coli AG163/164 APH(3′)-Ia,"[5]; AG163/164 APH(3′)-Ia, Table 2 (Example 1)",>128 µg/mL
same,MIC E coli AG166 APH(3′)-IIa,"[5]; AG166 APH(3′)-IIa, Table 2 (Example 1)",4 to 8 µg/mL
same,MIC APH(3)-VI,"[5]; APH(3)-VI, Table 3 (Example 1)",2 µg/mL
same,MIC APH(3′)-I,"[5]; APH(3′)-I, Table 3 (Example 1)",>64 µg/mL
same,MIC APH(3′)-II,"[5]; APH(3′)-II, Table 3 (Example 1)",2 µg/mL
same,MIC APH(3′)-III,"[5]; APH(3′)-III, Table 3 (Example 1)",>64 µg/mL
same,MIC AG003 E. coli AAC(3)-II,[5],4 µg/mL
same,MIC AG163 E. coli APH(3′)-I,"[5]; clinical isolate AG163 APH(3′)-I, Table 2 (Example 4)",>128 µg/mL
same,MIC AG166 E. coli APH(3′)-II,"[5]; clinical isolate AG166 APH(3′)-II, Table 2 (Example 4)",4 to 8 µg/mL
same,MIC AG037 E. coli APH(3′)-III,"[5]; engineered strain AG037 APH(3′)-III, Table 2 (Example 4)",>128 µg/mL
same,MIC pH421 E. coli APH(3′)-I,"[5]; engineered strain pH421 APH(3′)-I, Table 2 (Example 4)",>64 μg/ml
same,MIC pH422 E. coli APH(3′)-II,"[5]; engineered strain pH422 APH(3′)-II, Table 2 (Example 4)",2 μg/ml
same,MIC pH423 E. coli APH(3′)-VI,"[5]; engineered strain pH423 APH(3′)-VI, Table 2 (Example 4)",2 μg/ml
same,MIC E coli AG006 wt,"E coli wild type; AG006 wt, Table 2 (Example 1)",1 to 2 µg/mL
same,MIC E coli AG102 wt,"E coli wild type; AG102 wt, Table 2 (Example 1)",2 µg/mL
same,MIC E coli AG160 wt,"E coli wild type; AG160 wt, Table 2 (Example 1)",4 µg/mL
same,MIC WT,"E coli wild type; WT, Table 3 (Example 1)",2 µg/mL
same,MIC AG001 E. coli WT,E coli wild type,4 µg/mL
same,MIC AG055 E. coli WT,E coli wild type,2 µg/mL
same,MIC AG160 E. coli WT,"E coli wild type; clinical isolate AG160 WT, Table 2 (Example 4)",4 µg/mL
same,MIC pH430 E. coli WT,"E coli wild type; engineered strain pH430 WT, Table 2 (Example 4)",2 μg/ml
same,MIC50 E coli AG01,"E coli wild type; strain AG01, Table 1 (Example 1)",16 µg/mL
same,MIC50 E coli AG03,"E coli wild type; strain AG03, Table 1 (Example 1)",8 to 16 µg/mL
same,MIC50 E coli AG55,"E coli wild type; strain AG55, Table 1 (Example 1)",16 µg/mL
same,MIC AG212 E. coli,E coli wild type; strain AG212 E. coli (ATCC25922),4 µg/mL
"CNC1C(OC2C(N)CC(N)C(O)C2OC2OC(CO)C(OC3OC(CN)C(O)C(O)C3N)C2O)OC(CO)C(O)C1O (centres unmarked) [Compound 115, 2′-N-Methyl-paromomycin acetate salt]",MIC,[6],4 µg/mL
same,MIC,"M. smegmatis SZ380; SZ380, read-out: MIC M. smegmatis SZ380 WT, SZ380 WT, Table 5 (Example 3)",4 to 8 µg/mL
same,MIC,"M. smegmatis SZ380; SZ380, read-out: MIC SZ380 M. smegmatis, strain SZ380 Mycobacterium smegmatis",4 to 8 µg/mL
same,MIC,"P aeruginosa; strain AG220 Pseudomonas aeruginosa ATCC27853, read-out: MIC AG220 P. aerugin",> 64 µg/mL
same,MIC,"MRSA; clinical isolate AG038, read-out: MIC MRSA AG038",8 µg/mL
same,MIC,"MRSA; clinical isolate AG039, read-out: MIC MRSA AG039",> 128 µg/mL
same,MIC,"MRSA; clinical isolate AG042, read-out: MIC MRSA AG042",> 128 µg/mL
same,MIC,"MRSA; clinical isolate AG044, read-out: MIC MRSA AG044",4 µg/mL
same,MIC,"[7]; Klebsiella pneumoniae, read-out: MIC AG215 K. pneumon",2 µg/mL
same,Selectivity for Binding to the Bacterial Ribosome over the Mitochondrial Ribosome,[2]; Table 3 (Example 3),3151
same,IC50,"[2]; mitochondrial, Table 4 (Example 3), read-out: IC50 Mit",95 µM
same,Selectivity for Binding to the Bacterial Ribosome over the Cytosolic Ribosome,[8]; Table 3 (Example 3),1264
same,IC50,"[8]; cytosolic, Table 4 (Example 3), read-out: IC50 Cyt",38 µM
same,IC50,"[3]; bacterial ribosome, Table 4 (Example 3), read-out: IC50 Bac",0.03 µM
same,"selectivity for the bacterial ribosome over mitochondrial (wild type, A1555G mutant) and cytosolic ribosomes, in words",[3]; compared with the parent compound,increased selectivity for the bacterial ribosome
same,MIC,[9]; read-out: MIC AG290 E. cloacae,2 µg/mL
same,MIC,"M. abscessus; ATCC19977, ATCC 19977 WT, Table 5 (Example 3), read-out: MIC M. abscessus ATCC 19977 WT",16 µg/mL
same,MIC,M. abscessus; read-out: MIC M. abscessus engineered Δeis2,0.5 µg/mL
same,MIC,"M. abscessus; ATCC, Table 4 (Example 3), read-out: MIC M. abscessus ATCC",16 µg/mL
same,MIC,"M. abscessus; Clin. Isol., Table 4 (Example 3), read-out: MIC M. abscessus Clin. Isol.",32 µg/mL
same,Selectivity for Binding to the Bacterial Ribosome over the Mutant Mitochondrial Ribosome,[4]; Table 3 (Example 3),1134
same,MIC,[5]; read-out: MIC E coli AG106 AAC(2′),4 to 8 µg/mL
same,MIC,[5]; read-out: MIC E. coli AAC(2′) AG106,4 µg/mL
same,MIC,[5]; read-out: MIC E. coli AAC(2′) pH434,8 µg/mL
same,MIC,[5]; read-out: MIC E. coli AG106 AAC(2′)-Ia,4 µg/mL
same,MIC,[5]; read-out: MIC E. coli pGB2armA armA,4 to 8 µg/mL
same,MIC,[5]; read-out: MIC E. coli pH434 AAC(2′)-Ib,8 µg/mL
same,MIC,"E coli wild type; AG104 Wild type, Table 2 (Example 3), read-out: MIC E coli AG104 Wild type",2 to 4 µg/mL
same,MIC,"E coli wild type; ATCC25922, strain AG212 E. coli (ATCC25922), read-out: MIC AG212 E. coli",4 µg/mL
same,MIC,"E coli wild type; WT, Table 4 (Example 3), read-out: MIC E. coli WT",2 to 4 µg/mL
same,MIC,"E coli wild type; WT, Table 5 (Example 3), read-out: MIC E. coli WT",2 to 4 µg/mL
same,MIC,"E coli wild type; clinical isolate AG001, Table 1 (Example 3), read-out: MIC E coli AG001",16 µg/mL
same,MIC,"E coli wild type; clinical isolate AG003, Table 1 (Example 3), read-out: MIC E coli AG003",16 µg/mL
same,MIC,"E coli wild type; clinical isolate AG055, Table 1 (Example 3), read-out: MIC E coli AG055",16 µg/mL
